Experimental data published in patent US20200181089A1, “4-ANILINO-QUINOLINE COMPOUNDS AS ANTI-CANCER AGENTS” (INSERM (INSTITUT NATIONAL DE LA SANTÉ ET DE LA RECHERCHE …, priority 2016, published 2020).
Read-outs that look alike come from different tables or passages of the source.

Tests used:
[1] = system: A375 cells; experiment: A375 cell proliferation assay (trypan blue exclusion); assay type: cell-based; conditions: Homo sapiens, A-375, treated/untreated cell number; for activity at 1 µM: A375, 1 μM; for activity at 10 µM: A375, 10 μM
Description: Cells were counted using a Malassez chamber. The average and standard deviation were calculated from triplicate experiments. Antiproliferative effects were evaluated by trypan blue exclusion assay. Briefly, cells were seeded into 12-well plate and grown in media supplemented with indicated compound at 1 or 10 μM for 48 h or 96 h. Cells were washed with PBS and detached by trypsinization, collected and colored by trypan blue. Dead and living cells were counted and proliferation was calculated as follow: Proliferation (%)=[(treated cell number/untreated cells number)*100].

[2] = system: normal human melanocyte; experiment: Melanocyte viability assay (trypan blue exclusion); assay type: cell-based; conditions: 96 h
Description: (§1) Cell viability effects were evaluated by trypan blue exclusion assay. Briefly, cells were seeded into 12-well plate and grown in media supplemented with indicated compound at 10 μM for 96 h. Cells were washed with PBS and detached by trypsinization, collected and colored by trypan blue. Dead and living cells were counted and cell viability was calculated as follow: Viability (%)=100−[(dead cell number/total cells)*100].

[3] = system: normal human fibroblast; experiment: Fibroblast viability assay (trypan blue exclusion); assay type: cell-based; conditions: 96 h
Description: as §1

[4] = system: normal human melanocytes or fibroblasts; experiment: Proliferation of normal human melanocytes or fibroblasts; assay type: cell-based
[5] = Tolerability in treated CT26 tumor-bearing mice; assay type: in vivo; conditions: 10 mg/kg intraperitoneal
Description: In order to evaluate the new approach in different types of cancer, compound 5 was tested in colorectal cancer cells. CT26 cells were subcutaneously injected into syngeneic mice. After 3 days, the mice were treated intraperitoneally with DZNEP, compound 5, and anti-PD1 as monotherapies and combined. Additional treatments in which the mice received DZNEP or compound 5 plus anti-PD1 with an anti-CD8 antibody added to neutralize the T-cell response were included. […] Signs of tumor regression and tumor-free mice were even observed. […] The number of M1 macrophages and the percentage of M1 macrophages among the total macrophage population were increased in all the treated mice, especially in the mice that received the combination treatments (FIG. 2C). Each of the treatments increased the numbers and activation of DCs and the numbers of CD8+ and CD4+ cells infiltrating the tumors (FIG. 2D). […] Finally, CD3+ T-cells were isolated by negative selection from the spleens of the treated mice and cocultured with naïve CT26 cells.

[6] = system: B16 melanoma cells; experiment: Established subcutaneous B16 melanoma in C57Bl6 mice; assay type: in vivo
Description: FIG. 3. Compound 5 treatment is effective when used alone in reducing tumor growth in vivo and potentiates the anti-PD1 immune response in C57Bl6 mice subcutaneously injected with B16 melanoma cells. B16 cells were injected subcutaneously and the tumors were let to grow until an average volume of 100 mm^3 was reached. The mice were then sorted into four groups with similar average tumor volume and standard deviation. Treatment with compound 5 (10 mg/kg) or control (DMSO) was given by intraperitoneal injection every day. Anti-PD1 antibodies (125 μg/mouse) was given every other day alone or combined with daily injection of compound 5. Number of mice for each treatment group=8.
(§2) 0.5×10^6 cells in 100 μL PBS were subcutaneously injected into 4-week-old female C57Bl/6 mice (for the B16 experiment) or Balb/c mice (for the CT26 experiments). DZNEP is an inhibitor of the catalytic activity of EZH2 and was used as an additional control.
The inventors then asked whether compound 5 was able to increase the survival rate of mice with already established tumor and, if that was the case, also in this situation was able to synergize with anti-PD1 treatment. They thus decided to use the model B16 melanoma cells in C57Bl6 mice. B16 cells were again injected subcutaneously and the tumors were let to grow until an average volume of 100 mm3 was reached. […]

[7] = system: EZH2 transcription; experiment: Ability to decrease EZH2 mRNA level in A375 (dose-response, quantitative PCR); assay type: cell-based; conditions: Homo sapiens, A-375, 96 h; A375 cells, incubated 4 days; read-out: IC50 (concentration necessary to obtain 50% of EZH2 transcription activity)
Description: Typically, 30000-50000 cells were plated in six-well culture plates and incubated 24 h later with increasing concentration of NIK inhibitors or vehicle. Cells were incubated with the inhibitors for 4 days prior to harvesting for RNA extraction and PCR. Total RNA was isolated from cells using the RNAeasy minikit (Qiagen) according to the manufacturer's procedure. Reverse transcription was performed using the AMV reverse transcription system (Promega), and quantitative PCR was performed with Power Sybr green (Applied Biosystems, Life Technologies, Grand Island, N.Y.) following the manufacturer's instructions. The PCR was carried out on a Step One plus Real-Time PCR system (Applied Biosystems). All analyses were done in triplicate, and a melting curve analysis was performed to control for product quality and specificity. Expression levels were calculated using the comparative method of relative quantification, with SB34 as a normalizer. The data were analyzed for statistical significance using Student's t-test. The results are presented as the mean±SEM relative to the control. Primers were obtained from primer bank or primer depot (http://pga.mgh.harvard.edu/primerbank/, https://primerdepot.nci.nih.gov), and their specificity was verified using primer blast (http://www.ncbi.nlm.nih.gov/tools/primer-blast/).
Here IC50 represents the concentration necessary to obtain 50% of EZH2 transcription activity.

[8] = system: CT26 colon-cancer cells; experiment: Subcutaneous CT26 colon-cancer tumors in Balb/c mice; assay type: in vivo; conditions: compound 5 10 mg/kg, DZNEP 1 mg/kg, FIG. 2A
Description: A. Tumor progression in Balb/c mice subcutaneously injected with CT26 cells (0.5×10^6). After 3 days, treatment with compound 5 (10 mg/kg) or DMSO was given by intraperitoneal injection every other day starting 3 days after the first injection. Two groups of mice (with either DMSO or compound 5 treatment) were treated with anti-PD1 antibody injected subcutaneously every other day. Number of mice for each treatment group=10.
as §2
1 mg/kg DZNEP and 10 mg/kg compound 5 were used for the subsequent experiments. Tridimensional measurements were performed daily, and the tumor volume was expressed as mm^3. […] The T-cells were stained with CD8, perforin, and granzyme B antibodies and analyzed immediately by flow cytometry using a MACS-Quant Analyzer (Miltenyi Biotec, Paris, France).
Tumors were extracted and disaggregated using […] strainers. […] FoxP3 was detected by cell intranuclear staining employing the BD Pharmingen™ Mouse Foxp3 Buffer Set according to the manufacturer's instructions. IFN-γ, perforin, and granzyme B were detected by intracellular staining using the BD Cytofix/Cytoperm™ Kit following the manufacturer's instructions. […]

[9] = system: CT26 cells; experiment: Spleen CD3+ T-cells of treated mice cocultured with naïve CT26 cells; assay type: in vivo; conditions: coculture 24 or 48 h
Description: 1 mg/kg DZNEP and 10 mg/kg compound 5 were used for the subsequent experiments. Tridimensional measurements were performed daily, and the tumor volume was expressed as mm^3. […] Freshly collected tumors were dissociated and stained for immune-cell infiltrate using a flow cytometer. CD3+ T cells from spleen tissue were negatively selected using myltennyi magnetic columns and put in contact with naïve CT26 cells for 24 or 48 h. The CT26 cells were subsequently stained with DAPI (0.5 μg/ml, Molecular Probes, Grand Island, N.Y., USA). The T-cells were stained with CD8, perforin, and granzyme B antibodies and analyzed immediately by flow cytometry using a MACS-Quant Analyzer (Miltenyi Biotec, Paris, France).
Spleens were extracted and disaggregated, and the cells were resuspended in PBS. T-cells were isolated by CD3 negative selection to avoid activation. […] The flow-through containing the enriched fraction of CD3 cells was collected and analyzed by flow cytometry to determine the yield of the enrichment (CD3 cells constituted a minimum 70% of the total cells collected).

SMILES | activity at 1 µM ([1]; 48 h, read-out: Proliferation (%) At 1 μM - 48 H) | activity at 1 µM ([1]; 96 h, read-out: Proliferation (%) At 1 μM - 96 H) | activity at 10 µM ([1]; 48 h, read-out: Proliferation (%) At 10 μM - 48 H) | activity at 10 µM ([1]; 96 h, read-out: Proliferation (%) At 10 μM - 96 H) | Viability (%) at 10 μM Melanocyte [2] | Viability (%) at 10 μM Fibroblast [3] | proliferation of normal human melanocytes or fibroblasts [4] | clinical signs of toxicity [5] | liver enzymes in the blood [5] | liver weight and systemic glycemia compared to the other mice [5] | death dependent from treatment ([6]; B16 experiment) | median survival ([6]; days from injection, treatment started at tumor volume 100 mm3, control 13 days) | IC50 [7] | growth of the CT26 tumors [8] | killing of naïve CT26 cells by T-cells isolated from treated mice [9]
COc1ccc(Nc2ccnc3cc(Cl)ccc23)cc1 [Compound 5, 4-((4-methoxyphenyl)amino)-7-chloroquinolinium chloride] | 91% | 77.1% | 67.5% | 58.1% | 99.5% | 98.6% | Neither treatment had any effect | no clinical signs of toxicity | remained in the normal range | similar | no death dependent from compound 5 treatment was observed | 20 days | 5 µM |  | 
Nc1nccc2c1ncn2C1C=C(CO)C(O)C1O (stereo not drawn) [DZNEP] |  |  |  |  |  |  |  |  |  |  |  |  |  | significantly reduced | more effective in killing CT26 cells
